Test results as given in patent US20230089524A1, “COMPOSITIONS FOR USE IN THE INHIBITION OF DIHYDROOROTATE DEHYDROGENASE” (OHIO STATE INNOVATION FOUNDATION, priority 2019, published 2023).
Like-named read-outs stand apart in the source and are kept apart here.

Key:
h-DHODH = target: T1, h-DHODH (Homo sapiens, UniProt Q02127); test: DHODH enzymatic assay (DCIP reduction at 600 nm); type: biochemical; conditions: recombinant human enzyme, 25° C.
T1 construct: made in house
Description: DHODH Enzymatic Assay: DHODH activity was determined at 25° C. following the reduction of 2,6-dichloroindophenol sodium salt (DCIP) at 600 nm (ε=18 800 M^−1 cm^−1) on a spectrophotometer. The reaction medium used contained 50 mM Tris-HCl, pH 8.0, 0.1% Triton X-100, 0.1 mM LDHO, 0.025 mM CoQ1, and 0.06 mM DCIP. The reaction was started by addition of the enzyme. The inhibitory potency of the compounds was evaluated by measuring the initial velocity of the reaction either in the absence or in the presence of the compounds at the indicated concentrations. The DHODH enzyme used was the recombinant human enzyme prepared as previously described (Hélène Munier-Lehmann, et al., J. Med. Chem. 2015, 58:860-877).
(§1) Biological Activity. Cell proliferation assays were carried out using the MTS assay described herein using an AML cell line (i.e., OCI-AM L3) as described above. The assays were carried out in a blinded fashion. Assays were also carried out to assess the effect of representative disclosed compounds on DHODH activity.

OCI-AML3 cell line = test: MTS assay for cell growth/viability; type: cell-based; conditions: Homo sapiens
Description: MTS assay for cell growth/viability: Mitochondrial activity was measured to determine cell proliferation using an MTS assay (tetrazolium dye 3-[4,5-dimethylthiazol-2-yl]-2,5-diphenyl-tetrazolium bromide). Metabolically active cells convert MTS tetrazolium salt into a purple formazan product that is soluble in tissue culture medium. The amount of formazan measured at 490 nm absorbance is proportional to the number of proliferating cells. MTS assays in AML cell lines were carried out with 20K cells plated per well in 96-well plates with Cpd3 or brequinar in a dose series ranging from 0.0001 to 10 μM. Triplicate wells were set up for each condition. At 96 hours, the MTS reagent was added and after approximately 4 hours the plates were read in a spectrophotometer.
as §1

[1] = OCI-AML-3, 96 hours, read-out: OCI-AML3 cell line IC50
[2] = OCI-AML-3, read-out: growth arrest in the OCI-AML3 cell line, IC50

T1 sequence (Q02127 whole entry): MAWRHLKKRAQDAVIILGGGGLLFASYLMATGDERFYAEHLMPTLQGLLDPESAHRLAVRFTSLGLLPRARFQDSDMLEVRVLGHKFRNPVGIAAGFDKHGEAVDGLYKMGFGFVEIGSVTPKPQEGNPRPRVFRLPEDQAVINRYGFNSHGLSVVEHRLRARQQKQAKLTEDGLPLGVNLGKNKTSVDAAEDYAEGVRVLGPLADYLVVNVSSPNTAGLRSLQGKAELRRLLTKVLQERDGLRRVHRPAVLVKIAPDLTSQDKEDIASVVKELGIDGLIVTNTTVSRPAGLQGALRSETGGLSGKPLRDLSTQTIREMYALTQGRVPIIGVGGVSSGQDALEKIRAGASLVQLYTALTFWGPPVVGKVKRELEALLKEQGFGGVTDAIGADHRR

SMILES	IC50 (h-DHODH)	IC50 (OCI-AML3 cell line; [1])	IC50 (OCI-AML3 cell line; [2])
CCOc1ccc(-c2csc(-c3cc(C(=O)O)c4cc(F)ccc4n3)n2)cc1 [Cpd5, 2-(4-(4-ethoxyphenyl)thiazol-2-yl)-6-fluoroquinoline-4-carboxylic acid]	0.524 µM	7.41 µM	–
CCOc1ccc(-c2csc(-c3cc(C(=O)O)c4cc(F)ccc4n3)c2)cc1 [Cpd1, 2-(4-(4-ethoxyphenyl)thiophen-2-yl)-6-fluoroquinoline-4-carboxylic acid]	0.058 µM	0.413 µM	0.41 to 0.79 µM
CCOc1cccc(-c2csc(-c3cc(C(=O)O)c4cc(F)ccc4n3)c2)c1 [Cpd3, 2-(4-(3-ethoxyphenyl)thiophen-2-yl)-6-fluoroquinoline-4-carboxylic acid]	0.2 µM	10.9 µM	–
CCOc1ccc(-c2ccc(-c3cc(C(=O)O)c4cc(F)ccc4n3)s2)cc1 [Cpd2, 2-(5-(4-ethoxyphenyl)thiophen-2-yl)-6-fluoroquinoline-4-carboxylic acid]	0.212 µM	0.79 µM	0.41 to 0.79 µM
CCOc1cccc(-c2ccc(-c3cc(C(=O)O)c4cc(F)ccc4n3)s2)c1 [Cpd4, 2-(5-(3-ethoxyphenyl)thiophen-2-yl)-6-fluoroquinoline-4-carboxylic acid]	0.223 µM	3.35 µM	–

Results, then the molecule that gave them:

IC50 (h-DHODH)	IC50 (OCI-AML3 cell line; [1])	IC50 (OCI-AML3 cell line; [2])	SMILES
0.085 µM	4.92 µM	–	CCOc1ccc(-c2nc(-c3cc(C(=O)O)c4cc(F)ccc4n3)cs2)cc1 [Cpd7]
0.472 µM	> 10 µM	–	CCOc1ccc(-c2ncc(-c3cc(C(=O)O)c4cc(F)ccc4n3)s2)cc1 [Cpd8, 2-(2-(4-ethoxyphenyl)thiazol-5-yl)-6-fluoroquinoline-4-carboxylic acid]
13.9 µM	> 10 µM	–	CCOc1ccc(-c2cnc(-c3cc(C(=O)O)c4cc(F)ccc4n3)s2)cc1 [Cpd6, 2-(5-(4-ethoxyphenyl)thiazol-2-yl)-6-fluoroquinoline-4-carboxylic acid]
